Measured values taken from patent US10131658B2, “Anti-alphavbeta1 integrin compounds and methods” (The Regents of the University of California, priority 2013, dated 2018).

The compounds below were run on αvβ1 integrin (assay: Cell Adhesion Assay (integrin-specific adhesion, CHO cells transfected with human αv adhering to fibronectin)). Details: Cell Adhesion Assay.
Assay type: cell-based
Protocol: The effects of c8 and c16 on cell adhesion mediated by α5β1, α8β1, αvβ1, αvβ3, αvβ5, αvβ6, and αvβ8 were measured using pairs of cell lines and ligands selected to isolate the effect of each individual integrin. For α5β1 we utilized the colon carcinoma cell line, SW480, plated on 0.3 μg/ml fibronectin, for α8β1, we utilized SW480 cells transfected with human α8 adhering to 1 μg/ml recombinant TGFβ1 LAP [5], for αvβ1 we used Chinese Hamster Ovary Cells (CHO cells) transfected with human αv adhering to 0.3 μg/ml fibronectin [6], for αvβ3 we used SW480 cells transfected with human β3, for αvβ5 we used wild type SW480 cells adhering to 0.1 μg/ml vitronectin. […] Cells were allowed to attach for 30-60 min at 37° C. After incubation, non-adherent cells were removed by discarding the media and spinning the plate top-side down at 500 rpm for 5 minutes. Cells were then fixed and stained with 40 ul of 0.5% Crystal violet, 1% Formaldehyde, 20% Methanol for 30 minutes and lysed with 2% Trition-X. Absorbance was measured at 595 nm in a Microplate reader. For all assays, concentration-response curves were constructed by non-linear regression analysis and IC50 values were calculated using GraphPad Prism software.
αvβ1 integrin inhibition is effective in cell adhesion assay/mouse liver fibrosis model: Inhibitors were tested in cell adhesion assay to test their potency/selectivity. A panel of cell lines and integrin ligands were developed to allow rapid examination of potency and specificity of inhibitors against all 8 integrins that recognize RGD sequences in ligands. A subset of these was used to generate the very encouraging data about 8 shown above. These cell lines were used to calculate IC50 concentrations for each inhibitor synthesized to rapidly generate structure activity information to drive subsequent modification and synthesis. Inhibitors were evaluated for showing better potency/selectivity in CCl4-induced liver fibrosis. A general inhibitor of αv integrins can reverse fibrosis in this model when administered as a continuous subcutaneous infusion (from Alzet pumps) beginning 3 weeks after CCl4 initiation. However, global inhibition of all αv integrins is likely to cause unacceptable side effects. […] As above, pumps will be inserted after 3 weeks of CCl4 treatment. Once we find small molecules that are effective, each will be further tested in the UUO model of renal fibrosis and the bleomycin model of pulmonary fibrosis. Again we will examine therapeutic rather than prophylactic efficacy by beginning treatment in each model after the onset of fibrosis.

Structure (SMILES) | IC50 [nM]
NCCCCC(=O)Nc1ccc(C[C@H](NC(=O)[C@@H]2CCCN2S(=O)(=O)c2ccccc2)C(=O)O)cc1 [Compound 7, (S)-3-(4-(5-aminopentanamido)phenyl)-2-((S)-1-(phenylsulfonyl)pyrrolidine-2-carboxamido)propanoic acid] | 1000 to 10000
N=C(N)NCCCCC(=O)Nc1ccc(C[C@H](NC(=O)[C@@H]2CCCN2S(=O)(=O)c2ccccc2)C(=O)O)cc1 [Compound 8, (S)-3-(4-(5-guanidinopentanamido)phenyl)-2-((S)-1-(phenylsulfonyl)pyrrolidine-2-carboxamido)propanoic acid] | < 10
O=C(CCCCNC1=NCCN1)Nc1ccc(C[C@H](NC(=O)[C@@H]2CCCN2S(=O)(=O)c2ccccc2)C(=O)O)cc1 [Compound 11, (S)-3-(4-(5-((4,5-dihydro-1H-imidazol-2-yl)amino)pentanamido)phenyl)-2-((S)-1-(phenylsulfonyl)pyrrolidine-2-carboxamido)propanoic acid] | 10 to 1000
N=C(N)NC(=O)CCC(=O)Nc1ccc(C[C@H](NC(=O)[C@@H]2CCCN2S(=O)(=O)c2ccccc2)C(=O)O)cc1 [Compound 93] | 10 to 1000
Cc1cnc(NCCCC(=O)Nc2ccc(C[C@H](NC(=O)[C@@H]3CCCN3S(=O)(=O)c3ccccc3)C(=O)O)cc2)c(C)c1 [Compound 210, (S)-3-(4-(4-((3,5-dimethylpyridin-2-yl)amino)butanamido)phenyl)-2-((S)-1-(phenylsulfonyl)pyrrolidine-2-carboxamido)propanoic acid] | 10 to 1000
NCC(=O)Nc1ccc(C[C@H](NC(=O)[C@@H]2CCCN2S(=O)(=O)c2ccccc2)C(=O)O)cc1 [Compound 1, (S)-3-(4-(2-aminoacetamido)phenyl)-2-((S)-1-(phenylsulfonyl)pyrrolidine-2-carboxamido)propanoic acid] | 1000 to 10000
Cc1cccc(NCCCC(=O)Nc2ccc(C[C@H](NC(=O)[C@@H]3CCCN3S(=O)(=O)c3ccccc3)C(=O)O)cc2)n1 [Compound 207, (S)-3-(4-(4-((6-methylpyridin-2-yl)amino)butanamido)phenyl)-2-((S)-1-(phenylsulfonyl)pyrrolidine-2-carboxamido)propanoic acid] | 10 to 1000
N=C(N)NCC(=O)Nc1ccc(C[C@H](NC(=O)[C@@H]2CCCN2S(=O)(=O)c2ccccc2)C(=O)O)cc1 [Compound 4, (S)-3-(4-(2-guanidinoacetamido)phenyl)-2-((S)-1-(phenylsulfonyl)pyrrolidine-2-carboxamido)propanoic acid] | 10 to 1000
CNCCCCCC(=O)N[C@H](CCCNC(=N)N)C(=O)Nc1ccc(C[C@H](NC(=O)C2CCCN2S(=O)(=O)c2ccccc2)C(=O)O)cc1 (stereo partly drawn) [Compound 198] | 10 to 1000
O=C(CCCCNC1=NCCCN1)Nc1ccc(C[C@H](NC(=O)[C@@H]2CCCN2S(=O)(=O)c2ccccc2)C(=O)O)cc1 [Compound 60] | 10 to 1000
O=C(CCCc1ccc2c(n1)NCCC2)Nc1ccc(C[C@H](NC(=O)[C@@H]2CCCN2S(=O)(=O)c2ccccc2)C(=O)O)cc1 [Compound 63] | 10 to 1000
N=C(N)NCCC(=O)Nc1ccc(C[C@H](NC(=O)[C@@H]2CCCN2S(=O)(=O)c2ccccc2)C(=O)O)cc1 [Compound 5, (S)-3-(4-(3-guanidinopropanamido)phenyl)-2-((S)-1-(phenylsulfonyl)pyrrolidine-2-carboxamido)propanoic acid] | < 10
O=C(CCCNC1=NCCN1)Nc1ccc(C[C@H](NC(=O)[C@@H]2CCCN2S(=O)(=O)c2ccccc2)C(=O)O)cc1 [Compound 87, (S)-3-(4-(4-((4,5-dihydro-1H-imidazol-2-yl)amino)butanamido)phenyl)-2-((S)-1-(phenylsulfonyl)pyrrolidine-2-carboxamido)propanoic acid] | < 10
N=C(N)NCCCCCC(=O)Nc1ccc(C[C@H](NC(=O)[C@@H]2CCCN2S(=O)(=O)c2ccccc2)C(=O)O)cc1 [Compound 10, (S)-3-(4-(6-guanidinohexanamido)phenyl)-2-((S)-1-(phenylsulfonyl)pyrrolidine-2-carboxamido)propanoic acid] | 10 to 1000
CNCCCCCC(=O)N[C@H](CCCNC(=N)N)C(=O)Nc1ccc(C[C@H](NC(=O)[C@@H]2CCCN2S(=O)(=O)c2ccccc2)C(=O)O)cc1 (stereo in doubt) [Compound 199] | < 10
NCCCC(=O)Nc1ccc(C[C@H](NC(=O)[C@@H]2CCCN2S(=O)(=O)c2ccccc2)C(=O)O)cc1 [Compound 3, (S)-3-(4-(4-aminobutanamido)phenyl)-2-((S)-1-(phenylsulfonyl)pyrrolidine-2-carboxamido)propanoic acid] | 10 to 1000
NCCCCCC(=O)Nc1ccc(C[C@H](NC(=O)[C@@H]2CCCN2S(=O)(=O)c2ccccc2)C(=O)O)cc1 [Compound 9, (S)-3-(4-(6-aminohexanamido)phenyl)-2-((S)-1-(phenylsulfonyl)pyrrolidine-2-carboxamido)propanoic acid] | 1000 to 10000
N=C(N)Nc1cccc(CC(=O)Nc2ccc(C[C@H](NC(=O)[C@@H]3CCCN3S(=O)(=O)c3ccccc3)C(=O)O)cc2)c1 [Compound 205, (S)-3-(4-(2-(3-guanidinophenyl)acetamido)phenyl)-2-((S)-1-(phenylsulfonyl)pyrrolidine-2-carboxamido)propanoic acid] | 10 to 1000
CN(C)c1cccc2c(S(=O)(=O)N3CCCC3C(=O)N[C@@H](Cc3ccc(NC(=O)CCCCNC(=N)N)cc3)C(=O)O)cccc12 (stereo partly drawn) [Compound 215] | < 10
N=C(N)Nc1ccc(C(=O)Nc2ccc(C[C@H](NC(=O)[C@@H]3CCCN3S(=O)(=O)c3ccccc3)C(=O)O)cc2)cc1 [Compound 200, (S)-3-(4-(4-guanidinobenzamido)phenyl)-2-((S)-1-(phenylsulfonyl)pyrrolidine-2-carboxamido)propanoic acid] | 10 to 1000
N=C(N)Nc1cccc(C(=O)Nc2ccc(C[C@H](NC(=O)[C@@H]3CCCN3S(=O)(=O)c3ccccc3)C(=O)O)cc2)c1 [Compound 201, (S)-3-(4-(3-guanidinobenzamido)phenyl)-2-((S)-1-(phenylsulfonyl)pyrrolidine-2-carboxamido)propanoic acid] | < 10
Cc1cc(C)cc(S(=O)(=O)N2CCC[C@H]2C(=O)N[C@@H](Cc2ccc(NC(=O)CCCNC(=N)N)cc2)C(=O)O)c1 [Compound 214] | 10 to 1000
O=C(CCCNc1ccccn1)Nc1ccc(C[C@H](NC(=O)[C@@H]2CCCCN2S(=O)(=O)c2ccccc2)C(=O)O)cc1 [Compound 213] | < 10
NCCC(=O)Nc1ccc(C[C@H](NC(=O)[C@@H]2CCCN2S(=O)(=O)c2ccccc2)C(=O)O)cc1 [Compound 2, (S)-3-(4-(3-aminopropanamido)phenyl)-2-((S)-1-(phenylsulfonyl)pyrrolidine-2-carboxamido)propanoic acid] | 10 to 1000
N=C(N)NCCOCC(=O)Nc1ccc(C[C@H](NC(=O)[C@@H]2CCCN2S(=O)(=O)c2ccccc2)C(=O)O)cc1 [Compound 204, (S)-3-(4-(2-(2-guanidinoethoxy)acetamido)phenyl)-2-((S)-1-(phenylsulfonyl)pyrrolidine-2-carboxamido)propanoic acid] | 10 to 1000
N=C(N)NCCCC(=O)Nc1ccc(C[C@H](NC(=O)[C@@H]2CCCCN2S(=O)(=O)c2ccccc2)C(=O)O)cc1 [Compound 212] | 10 to 1000
NCCCC(=O)Nc1ccc(C[C@H](NC(=O)[C@@H]2CCCN2S(=O)(=O)c2ccccc2)C(=O)O)cc1 [Compound 6, (S)-3-(4-(4-aminobutanamido)phenyl)-2-((S)-1-(phenylsulfonyl)pyrrolidine-2-carboxamido)propanoic acid] | < 10
Cc1ccc(NCCCC(=O)Nc2ccc(C[C@H](NC(=O)[C@@H]3CCCN3S(=O)(=O)c3ccccc3)C(=O)O)cc2)nc1 [Compound 206, (S)-3-(4-(4-((5-methylpyridin-2-yl)amino)butanamido)phenyl)-2-((S)-1-(phenylsulfonyl)pyrrolidine-2-carboxamido)propanoic acid] | 10 to 1000

Same assay, conditions: preliminary studies; highly selective manner

Structure (SMILES) | concentration that inhibits cell adhesion by αvβ1 integrin [pM]
N=C(N)NCCCCC(=O)Nc1ccc(C[C@H](NC(=O)[C@@H]2CCCN2S(=O)(=O)c2ccccc2)C(=O)O)cc1 [Compound 8, (S)-3-(4-(5-guanidinopentanamido)phenyl)-2-((S)-1-(phenylsulfonyl)pyrrolidine-2-carboxamido)propanoic acid] | < 100

What follows are compounds tested on TGFβ activation by cells expressing αvβ1 (assay: TGFβ activation assay (co-culture with PAI1-luciferase TGFβ reporter cells)). Details: not given.
Assay type: cell-based
Protocol: Test cells were plated at 50K cells/well in 96-well plates together with mink lung epithelial cells expressing firefly luciferase downstream of the TGFβ sensitive portion of the plasminogen activator inhibitor 1 promoter (15K cells/well). Cells were co-cultured for 16 hours and TGFβ activity was calculated by measurement of luminescencein the presence and absence of TGFβ-blocking antibody, 1D11.

Structure (SMILES) | TGFβ activation by cultured liver myofibroblasts
N=C(N)NCCCCC(=O)Nc1ccc(C[C@H](NC(=O)[C@@H]2CCCN2S(=O)(=O)c2ccccc2)C(=O)O)cc1 [Compound 8, (S)-3-(4-(5-guanidinopentanamido)phenyl)-2-((S)-1-(phenylsulfonyl)pyrrolidine-2-carboxamido)propanoic acid] | inhibits TGFβ activation
